# Laboratory results: patent publication US20260207592A1, “PHARMACEUTICAL SUSPENSION OF NILOTINIB” (RENATA PHARMACEUTICALS (IRELAND) LIMITED, priority 2022, published 2026)
# Where a name gives a salt, the structure may show the parent alone.
# Experiments:
# [1] = Selection of surfactants: API solubility with different surfactants; details: solubility not done, observation
# [2] = physchem
# [3] = physchem; details: 0.01N HCl, simulated gastric fluid
# [4] = cited from earlier work
Compound,"solubility ([1]; SLS, 5 mg/ml)","solubility ([1]; Span 80, 150 ml/ml)",solubility [2] [µg/mL],"solubility ([2]; poloxamer 188 solution, 100 mg/ml, aqueous with cosolvent or surfactant or cyclodextrin) [µg/mL]","solubility ([2]; poloxamer 407 solution, 10 mg/ml, aqueous with cosolvent or surfactant or cyclodextrin) [µg/mL]","solubility ([2]; polysorbate 20 solution, 5 mg/ml, aqueous with cosolvent or surfactant or cyclodextrin) [µg/mL]",solubility [3] [µg/mL],solubility in alcohol (descriptive) ([4]; alcohol),solubility in water ([4]; water) [µg/mL],solubility in water (descriptive) ([4]; water)
"Cc1cn(-c2cc(NC(=O)c3ccc(C)c(Nc4nccc(-c5cccnc5)n4)c3)cc(C(F)(F)F)c2)cn1 [API, Nilotinib Hydrochloride Monohydrate]",Not done (Large lump formed,Not done (phase separation observed,0.2,321,227,478,494,–,–,–
"Cc1cn(-c2cc(NC(=O)c3ccc(C)c(Nc4nccc(-c5cccnc5)n4)c3)cc(C(F)(F)F)c2)cn1 [Nilotinib, 4-Methyl-3-[[4-(3-pyridinyl)-2-pyrimidinyl]amino]-N-[5-(4-methyl-1H-imidazol-1-yl)-3-(trifluoromethyl)phenyl] benzamide]",–,–,–,–,–,–,–,slightly soluble,0.2,very slightly soluble
